The experiment has as its system HEK293 cells. The experiment in a line: Evaluation of AAV vector-producing ability by treatment with chemical substance (rAAV1 virus titer by qPCR). It counts as cell-based, human. The following applies: HEK293 cells producing rAAV1, serum-free E-MEM with chemical substance at various concentrations, 3 days culture, virus titer (v.g.) vs untreated control. Here is the method:
The cells of the immortalized cell line derived from the human embryonic kidney (HEK293 cells) purchased from ATCC (American Type Culture Collection) were cultured in E-MEM supplemented with 10% fetal bovine serum, penicillin, and streptomycin at 37° C. in the presence of 5% CO2.
The recombinant adeno-associated virus 1 (rAAV1) was prepared with the use of 3 types of plasmids: pAAV-ZsGreen1 (TaKaRa Bio), pAAV2/1, and pHelper. A mixture of 3 types of plasmids for preparation of rAAV1 was adjusted to bring the mixing ratio of DNA to Polyethylenimine Max (PEI:Polysciences) (DNA:PEI) to 1:2 in OPTI-MEM, and the reaction was allowed to proceed at room temperature for 15 minutes. […]
Genome DNA of rAAV1 was extracted to measure the virus titer. […] The virus titer was measured by real-time PCR in triplicate. qPCR was performed using primers targeting Zs-Green 1. […]
In the present example, effects of enhancing production of AAV vectors achieved with the use of chemical substances different from the chemical substances tested in Example 1 were measured in the same manner as in Example 1.
In the present comparative example, effects of enhancing production of AAV vectors were measured in the same manner as in Example 1, except for the use of ascorbic acid (2.5, 5, or 10 μg/ml) disclosed in the examples of WO 2021/138387. […]
On the technique in general: Real-time PCR tracks product formation cycle by cycle.

The structures appear in SMILES notation.

`O=C1O[C@H]([C@@H](O)CO)C(O)=C1O` [ascorbic acid]: the “effects of enhancing the amount of production of AAV vectors” value is “no significant differences were observed”.

The values are drawn from US20250163456A1, “AGENT FOR ENHANCING PRODUCTION OF VIRAL VECTOR AND METHOD FOR PRODUCING VIRAL VECTOR” (priority 2022, published 2025).
